Laboratory results: article PMC12416277, “Phytochemical alkaloids orchestrate immunometabolism against viral infections” (National Science Review, 2025)

How the values were obtained:
[1] = system: H1N1; format: cell-based, influenza virus A (H1N1)
[2] = system: TBK1, STAT1 and STAT2 phosphorylation; assay: Immunoblotting of p-TBK1, p-STAT1, p-STAT2 in THP-1 and MEF cells; format: cell-based; settings: THP-1, MEF cells
[3] = system: IFN-β; assay: IFN-β secretion in MEF cells (ELISA); format: cell-based
[4] = system: STING; assay: DMXAA-stimulated WT or Sting-/- MEF cells, Ifnb1, Ifi44, Ccl5, Cxcl10 mRNA; format: cell-based, mouse
[5] = system: HSV-1; format: cell-based, herpes simplex virus 1 (HSV-1)
[6] = system: H1N1; assay: H1N1 NP protein in A549 cells (confocal microscopy, immunoblotting); format: cell-based, influenza virus A (H1N1)
Experimental: Cells were lysed in lysis buffer and the protein concentrations were determined using the BCA Protein Assay Kit. Subsequently, the protein samples were separated by SDS-PAGE electrophoresis and transferred to nitrocellulose (NC) membranes, and blocked in 5% skim milk for 1 h at room temperature. Following an overnight incubation at 4°C with specific primary antibodies, the membranes were exposed to the appropriate HPR-conjugated antibodies and visualized using enhanced chemiluminescence.
Cells were fixed with 4% PFA for 20 min, permeabilized with 0.2% Triton X-100 for 20 min, and blocked in 5% BAS for 1 h. After incubating with primary antibodies at 4℃ overnight, fluorescent secondary antibodies (Alexa-488, Alexa-594, Alexa-647) were added at RT for 1 h. Confocal microscopy analyses were carried out using Olympus FV3000 confocal microscope, and Leica TCS SP8 confocal microscope. […] Cells were then analyzed for Filipin staining signals by microscopy in the DAPI channel. […] Cells were then analyzed for signals by microscopy in the AF647 channel.
Figure S2. […] P values were calculated using one-way ANOVA.

[7] = system: EMCV; format: cell-based, encephalomyocarditis virus (EMCV)
[8] = system: H1N1; assay: Viral attachment, entry and post-entry assay, H1N1 in A549 cells; format: cell-based, influenza virus A (H1N1)
[9] = system: H1N1; assay: Dose-response of infectivity, H1N1 in A549 cells (viral mRNA by qRT-PCR); format: cell-based; settings: Influenza A virus; A549 cells, H1N1; read-out: EC50
[10] = system: EMCV; assay: microbe, parasite or virus in culture; format: cell-based, encephalomyocarditis virus (EMCV); settings: Cardiovirus A, L929
[11] = system: A549 cells; assay: Transcriptome analysis (RNA-seq, GO, GSEA) of compound-treated A549 cells; settings: WT A549 cells, compared among Tet, Fan, Cep, Bbm
[12] = system: VSV; format: cell-based, vesicular stomatitis virus (VSV)
[13] = system: VSV; format: cell-based, vesicular stomatitis virus (VSV); remark: listed apart in the source
[14] = system: STAT1; assay: Confocal analysis of nuclear localization of STAT1 in A549 cells; format: cell-based
[15] = system: VSV; format: cell-based, vesicular stomatitis virus (VSV); remark: listed apart in the source

SMILES: COc1ccc2cc1Oc1ccc(cc1)C[C@H]1c3cc(c(OC)cc3CCN1C)Oc1c(OC)c(OC)cc3c1[C@H](C2)N(C)CC3 [Tet, tetrandrine]
- antiviral effect against H1N1 [1]: diminished
- phosphorylation of TBK1, STAT1 and STAT2 [2]: increased the phosphorylation of TBK1, STAT1 and STAT2 in a time- and dose-dependent manner
- IFN-β production [3]: induced
- Ifnb1, Ifi44, Ccl5 and Cxcl10 gene expression ([4]; DMXAA treated Sting-/- MEF cells): abolished
- Ifnb1, Ifi44, Ccl5 and Cxcl10 gene expression ([4]; DMXAA treated WT MEF cells): increased
- antiviral effect against HSV-1 [5]: markedly reduced
- H1N1 NP protein expression [6]: effectively reduced
- cytopathic effects [6]: without causing cytopathic effects
- EMCV attachment [7]: without affecting virus attachment
- EMCV infection during entry or post-entry stages [7]: inhibited
- H1N1 infection during entry or post-entry stages [8]: inhibited
- H1N1 attachment ([8]; 4°C): without affecting virus attachment
- EC50 [9]: 330 nM
- EC50 [10]: 989 nM
- expression of antiviral immune-related genes [11]: higher expression
- antiviral effect and boosted ISGs [12]: significantly attenuated
- antiviral effect against VSV [13]: diminished
- STAT1 nucleus translocation [14]: promoted STAT1 nucleus translocation
- VSV replication (VSV-G protein, immunoblotting) [15]: inhibited
